Calls of active or inactive are those of the source. How the calls were made is not given here.
Test system: CCRIS mutagenicity, Ames/micronucleus/aberration tests
Test: CCRIS mutagenicity studies
[1] = Test System: AMES SALMONELLA TYPHIMURIUM, Strain/Indicator: TA98, Metabolic Activation: HAMSTER, LIVER, S-9, AROCLOR 1254 (30%), Method: PREINCUBATION
[2] = Test System: AMES SALMONELLA TYPHIMURIUM, Strain/Indicator: TA98, Metabolic Activation: NONE, Method: PREINCUBATION
[3] = Test System: AMES SALMONELLA TYPHIMURIUM, Strain/Indicator: TA98, Metabolic Activation: RAT, LIVER, S-9, AROCLOR 1254 (30%), Method: PREINCUBATION
[4] = Test System: AMES SALMONELLA TYPHIMURIUM, Strain/Indicator: TA100, Metabolic Activation: HAMSTER, LIVER, S-9, AROCLOR 1254 (30%), Method: PREINCUBATION
[5] = Test System: AMES SALMONELLA TYPHIMURIUM, Strain/Indicator: TA100, Metabolic Activation: NONE, Method: PREINCUBATION
[6] = Test System: AMES SALMONELLA TYPHIMURIUM, Strain/Indicator: TA100, Metabolic Activation: RAT, LIVER, S-9, AROCLOR 1254 (30%), Method: PREINCUBATION

Measured: mutagenic call

ClC(Cl)(Cl)Cl
active: End Point: IN VIVO MICRONUCLEUS, Test System: BONE MARROW POLYCHROMATIC ERYTHROCYTES, Species: MOUSE, Strain/Sex: MALE, Route: IP INJECTION active; positive | Test System: AMES SALMONELLA TYPHIMURIUM, Strain/Indicator: TA98, Metabolic Activation: NONE, Method: GAS EXPOSURE active; positive | Test System: AMES SALMONELLA TYPHIMURIUM, Strain/Indicator: TA1535, Metabolic Activation: RAT, LIVER, S-9, AROCLOR 1254, Method: STANDARD PLATE active; positive | Test System: AMES SALMONELLA TYPHIMURIUM, Strain/Indicator: TA1537, Metabolic Activation: NONE, Method: STANDARD PLATE active; positive | Test System: Ames Salmonella typhimurium, Strain/Indicator: TA98, Metabolic Activation: None, Method: Gas exposure method active; positive | Test System: E. COLI, Strain/Indicator: WP2UVRA/PKM101, Metabolic Activation: NONE, Method: GAS EXPOSURE active; positive | Test System: E. COLI, Strain/Indicator: WP2UVRA/PKM101, Metabolic Activation: RAT LIVER S-9, PHENOBARBITOL AND 5,6-BENZOFLAVONE, GLUTATHIONE-SUPPLEMENTED, Method: GAS EXPOSURE active; positive | Test System: E. COLI, Strain/Indicator: WP2UVRA/PKM101, Metabolic Activation: RAT LIVER S-9, PHENOBARBITOL AND 5,6-BENZOFLAVONE, Method: GAS EXPOSURE active; positive
inactive: End Point: IN VITRO CHROMOSOMAL ABERRATIONS, Test System: CHO-LB CELLS, Metabolic Activation: NONE inactive; negative | End Point: IN VITRO CHROMOSOMAL ABERRATIONS, Test System: CHO-LB CELLS, Metabolic Activation: RAT, LIVER, S-9, AROCLOR 1254 inactive; negative | End Point: In vitro chromosomal aberrations, Test System: Chinese hamster lung (CHL/IU) cells, Metabolic Activation: Rat, Liver, S9, Phenobarbital and 5,6-benzoflavone inactive; negative | Test System: AMES SALMONELLA TYPHIMURIUM, Strain/Indicator: TA97, Metabolic Activation: HAMSTER, LIVER, S-9, AROCLOR 1254 (10%), Method: PREINCUBATION inactive; negative | Test System: AMES SALMONELLA TYPHIMURIUM, Strain/Indicator: TA97, Metabolic Activation: HAMSTER, LIVER, S-9, AROCLOR 1254 (30%), Method: PREINCUBATION inactive; negative | Test System: AMES SALMONELLA TYPHIMURIUM, Strain/Indicator: TA97, Metabolic Activation: NONE, Method: PREINCUBATION inactive; negative | Test System: AMES SALMONELLA TYPHIMURIUM, Strain/Indicator: TA97, Metabolic Activation: NONE, Method: STANDARD PLATE inactive; negative | Test System: AMES SALMONELLA TYPHIMURIUM, Strain/Indicator: TA97, Metabolic Activation: RAT, LIVER, S-9, AROCLOR 1254 (10%), Method: PREINCUBATION inactive; negative | Test System: AMES SALMONELLA TYPHIMURIUM, Strain/Indicator: TA97, Metabolic Activation: RAT, LIVER, S-9, AROCLOR 1254 (30%), Method: PREINCUBATION inactive; negative | Test System: AMES SALMONELLA TYPHIMURIUM, Strain/Indicator: TA97, Metabolic Activation: RAT, LIVER, S-9, AROCLOR 1254, Method: STANDARD PLATE inactive; negative | Test System: AMES SALMONELLA TYPHIMURIUM, Strain/Indicator: TA98, Metabolic Activation: HAMSTER, LIVER, S-9, AROCLOR 1254 (10%), Method: PREINCUBATION inactive; negative | [1] inactive; negative | [2] inactive; negative | Test System: AMES SALMONELLA TYPHIMURIUM, Strain/Indicator: TA98, Metabolic Activation: RAT LIVER S-9, PHENOBARBITOL AND 5,6-BENZOFLAVONE, Method: GAS EXPOSURE inactive; negative | Test System: AMES SALMONELLA TYPHIMURIUM, Strain/Indicator: TA98, Metabolic Activation: RAT, LIVER, S-9, AROCLOR 1254 (10%), Method: PREINCUBATION inactive; negative | [3] inactive; negative | Test System: AMES SALMONELLA TYPHIMURIUM, Strain/Indicator: TA98, Metabolic Activation: RAT, LIVER, S-9, AROCLOR 1254, Method: STANDARD PLATE inactive; negative | Test System: AMES SALMONELLA TYPHIMURIUM, Strain/Indicator: TA100, Metabolic Activation: HAMSTER, LIVER, S-9, AROCLOR 1254 (10%), Method: PREINCUBATION inactive; negative | [4] inactive; negative | [5] inactive; negative | Test System: AMES SALMONELLA TYPHIMURIUM, Strain/Indicator: TA100, Metabolic Activation: RAT, LIVER, S-9, AROCLOR 1254 (10%), Method: PREINCUBATION inactive; negative | [6] inactive; negative | Test System: AMES SALMONELLA TYPHIMURIUM, Strain/Indicator: TA1535, Metabolic Activation: HAMSTER, LIVER, S-9, AROCLOR 1254 (10%), Method: PREINCUBATION inactive; negative | Test System: AMES SALMONELLA TYPHIMURIUM, Strain/Indicator: TA1535, Metabolic Activation: HAMSTER, LIVER, S-9, AROCLOR 1254 (30%), Method: PREINCUBATION inactive; negative | Test System: AMES SALMONELLA TYPHIMURIUM, Strain/Indicator: TA1535, Metabolic Activation: NONE, Method: PREINCUBATION inactive; negative | Test System: AMES SALMONELLA TYPHIMURIUM, Strain/Indicator: TA1535, Metabolic Activation: NONE, Method: STANDARD PLATE inactive; negative | Test System: AMES SALMONELLA TYPHIMURIUM, Strain/Indicator: TA1535, Metabolic Activation: RAT, LIVER, S-9, AROCLOR 1254 (10%), Method: PREINCUBATION inactive; negative | Test System: AMES SALMONELLA TYPHIMURIUM, Strain/Indicator: TA1535, Metabolic Activation: RAT, LIVER, S-9, AROCLOR 1254 (30%), Method: PREINCUBATION inactive; negative | Test System: AMES SALMONELLA TYPHIMURIUM, Strain/Indicator: TA1537, Metabolic Activation: HAMSTER, LIVER, S-9, AROCLOR 1254 (10 OR 30%), Method: PREINCUBATION inactive; negative | Test System: AMES SALMONELLA TYPHIMURIUM, Strain/Indicator: TA1537, Metabolic Activation: NONE, Method: PREINCUBATION inactive; negative | Test System: AMES SALMONELLA TYPHIMURIUM, Strain/Indicator: TA1537, Metabolic Activation: RAT, LIVER, S-9, AROCLOR 1254 (10 OR 30%), Method: PREINCUBATION inactive; negative | Test System: Ames Salmonella typhimurium, Strain/Indicator: TA98, Metabolic Activation: Rat, Liver, S9, Sodium phenobarbital and 5,6-benzoflavone (10%), Method: Gas exposure method inactive; negative | Test System: Ames Salmonella typhimurium, Strain/Indicator: TA100, Metabolic Activation: None, Method: Gas exposure method inactive; negative | Test System: Ames Salmonella typhimurium, Strain/Indicator: TA100, Metabolic Activation: Rat, Liver, S9, Sodium phenobarbital and 5,6-benzoflavone (10%), Method: Gas exposure method inactive; negative | Test System: Ames Salmonella typhimurium, Strain/Indicator: TA1535, Metabolic Activation: None, Method: Gas exposure method inactive; negative | Test System: Ames Salmonella typhimurium, Strain/Indicator: TA1535, Metabolic Activation: Rat, Liver, S9, Sodium phenobarbital and 5,6-benzoflavone (10%), Method: Gas exposure method inactive; negative | Test System: Ames Salmonella typhimurium, Strain/Indicator: TA1537, Metabolic Activation: None, Method: Gas exposure method inactive; negative | Test System: Ames Salmonella typhimurium, Strain/Indicator: TA1537, Metabolic Activation: Rat, Liver, S9, Sodium phenobarbital and 5,6-benzoflavone (10%), Method: Gas exposure method inactive; negative | Test System: MOUSE LYMPHOMA, Strain/Indicator: L5178Y (TK+/TK-), Metabolic Activation: RAT, LIVER, S-9, AROCLOR 1254, Method: SUSPENSION/PLATE inactive; negative | Test System: UDS RAT HEPATOCYTES, Strain/Indicator: BROMODEOXYURIDINE INCORP, Metabolic Activation: NONE, Method: FLOW CYTOMETRIC ANALYSIS inactive; negative | Test System: UDS RAT HEPATOCYTES, Strain/Indicator: THY INCORP, Metabolic Activation: NONE, Method: AUTORADIOGRAPHY inactive; negative

CCCC(=O)Cl
inactive: [1] inactive; negative | [2] inactive; negative | [3] inactive; negative | [4] inactive; negative | [5] inactive; negative | [6] inactive; negative
